We go through 27 molecules from patent US10988477B2 (Merck Patent GmbH, priority 2018, dated 2021).

Assay [1] concerns the target intracellular GCN2 (phosphorylation of the GCN2 substrate eIF2α) (Homo sapiens, UniProt Q9P2K8). Briefly: GCN2 cellular inhibition assay (AlphaScreen SureFire P-eIF2α Ser51, borrelidin-treated U2OS cells). The format is cell-based. The note with it: compounds of Formula II; biomarker assay, phosphorylated eIF2α Ser51 in borrelidin-treated U2OS cells. The method, boiled down:
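Compound effect on GCN2 is gauged by eIF2α Ser51 phosphorylation in borrelidin-challenged U2OS cells (10 μM, 1 h). Top compound level is 40 μM final.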
In general terms: Bead proximity is the source of the signal in Alpha formats.

The target in another assay is GCN2 kinase (Homo sapiens, UniProt Q9P2K8). The experiment in a line: GCN2 enzyme inhibition assay (Transcreener ADP2 fluorescence polarization). The format is biochemical. The note with it: compounds of Formula II; 280 μM ATP, 4 nM GCN2 kinase. The method, boiled down:
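Human GCN2 (4 nM) preincubated 10 min with compound (0–8 μM) and 200 μM (RS)7 peptide in Tris-HCl pH 7.5, NaCl, MgCl2, DTT. Reaction started with 280 μM ATP, run 1 h at 25 °C. ADP detected by Transcreener fluorescence polarization. IC50 and Ki(app) fitted by tight-binding algorithm.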
On the technique in general: In fluorescence polarisation assays a small probe gives low polarisation when free and higher when bound to something large.

Where a name gives a salt, the structure may show the parent alone.

Chain of intracellular GCN2 (phosphorylation of the GCN2 substrate eIF2α) (Q9P2K8 whole entry): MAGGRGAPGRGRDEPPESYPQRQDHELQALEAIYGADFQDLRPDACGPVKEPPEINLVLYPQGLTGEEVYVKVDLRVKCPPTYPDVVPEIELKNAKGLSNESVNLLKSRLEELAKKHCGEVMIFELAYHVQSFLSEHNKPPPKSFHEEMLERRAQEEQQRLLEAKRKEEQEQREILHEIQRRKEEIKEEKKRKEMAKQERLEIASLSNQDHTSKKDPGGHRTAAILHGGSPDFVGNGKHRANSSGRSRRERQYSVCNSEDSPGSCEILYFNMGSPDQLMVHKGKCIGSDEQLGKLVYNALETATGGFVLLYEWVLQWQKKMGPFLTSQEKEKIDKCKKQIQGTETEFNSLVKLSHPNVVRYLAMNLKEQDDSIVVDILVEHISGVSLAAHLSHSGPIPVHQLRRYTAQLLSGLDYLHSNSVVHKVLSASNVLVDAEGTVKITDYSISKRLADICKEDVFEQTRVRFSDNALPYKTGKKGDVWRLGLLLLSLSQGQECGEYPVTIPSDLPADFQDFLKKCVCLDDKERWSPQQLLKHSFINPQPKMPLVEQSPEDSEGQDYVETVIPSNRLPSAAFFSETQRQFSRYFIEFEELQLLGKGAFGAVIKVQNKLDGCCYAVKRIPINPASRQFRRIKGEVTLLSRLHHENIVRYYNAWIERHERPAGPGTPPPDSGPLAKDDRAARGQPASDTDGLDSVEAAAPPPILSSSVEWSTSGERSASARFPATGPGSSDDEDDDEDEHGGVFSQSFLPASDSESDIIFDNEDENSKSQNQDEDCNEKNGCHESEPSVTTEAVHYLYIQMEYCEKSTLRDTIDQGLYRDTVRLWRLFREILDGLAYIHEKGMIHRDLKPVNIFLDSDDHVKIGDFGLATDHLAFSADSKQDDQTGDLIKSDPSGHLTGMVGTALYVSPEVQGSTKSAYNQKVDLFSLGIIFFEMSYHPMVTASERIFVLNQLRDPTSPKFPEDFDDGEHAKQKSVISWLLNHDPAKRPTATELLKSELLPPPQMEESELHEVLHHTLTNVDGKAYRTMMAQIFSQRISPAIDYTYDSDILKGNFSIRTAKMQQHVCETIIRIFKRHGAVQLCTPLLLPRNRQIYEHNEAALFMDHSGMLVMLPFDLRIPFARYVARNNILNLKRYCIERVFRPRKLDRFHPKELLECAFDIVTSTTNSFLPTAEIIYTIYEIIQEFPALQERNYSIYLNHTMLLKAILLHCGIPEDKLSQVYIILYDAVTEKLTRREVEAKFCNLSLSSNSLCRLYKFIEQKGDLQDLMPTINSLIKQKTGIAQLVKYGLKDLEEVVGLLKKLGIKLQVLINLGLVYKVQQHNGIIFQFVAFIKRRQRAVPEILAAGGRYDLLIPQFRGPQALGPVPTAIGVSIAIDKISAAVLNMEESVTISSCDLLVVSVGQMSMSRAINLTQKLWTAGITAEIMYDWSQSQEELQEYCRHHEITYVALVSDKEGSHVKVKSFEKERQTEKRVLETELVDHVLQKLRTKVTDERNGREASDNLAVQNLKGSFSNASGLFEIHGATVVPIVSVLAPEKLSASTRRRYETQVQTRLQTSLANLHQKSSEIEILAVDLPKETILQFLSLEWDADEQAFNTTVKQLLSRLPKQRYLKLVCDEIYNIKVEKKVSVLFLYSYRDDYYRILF
Chain of GCN2 kinase (Q9P2K8 whole entry): as above

A word on the IC50: it is the point on the concentration scale where inhibition reaches its midpoint. A lower IC50 goes with greater potency. What is called Ki is the equilibrium dissociation constant of an inhibitor or competing ligand from its target. A higher Ki goes with weaker binding. `CS(=O)(=O)N1CC2OCCN(c3cc(-c4cnc5ccc(C(F)F)nn45)ncn3)C2C1` (stereo not drawn) [II-319, 4-(6-(6-(Difluoromethyl)imidazo[1,2-b]pyridazin-3-yl)pyrimidin-4-yl)-6-(methylsulfonyl)octahydropyrrolo[3,4-b][1,4]oxazine] displayed an IC50 in assay [1] of over 5000 nM. Further, the Ki at GCN2 kinase lay within 10 to 1000 nM.

Molecule `CS(=O)(=O)N1CC2CCCN(c3cc(-c4cnc5ccc(C(F)F)nn45)ncn3)C2C1` (stereo not drawn) [II-320, 6-(Difluoromethyl)-3-(6-(6-(methylsulfonyl)octahydro-1H-pyrrolo[3,4-b]pyridin-1-yl)pyrimidin-4-yl)imidazo[1,2-b]pyridazine] registered an IC50 in assay [1] of over 5000 nM. This molecule also registered a Ki at GCN2 kinase of 10 to 1000 nM.

`C[C@H]1CN(c2cc(-c3cnc4ccc(C(C)(F)F)nn34)ncn2)C[C@@H](CNS(C)(=O)=O)C1(F)F` [II-321, N-(((3S,5S)-1-(6-(6-(1,1-Difluoroethyl)imidazo[1,2-b]pyridazin-3-yl)pyrimidin-4-yl)-4,4-difluoro-5-methylpiperidin-3-yl)methyl)methanesulfonamide] registered an IC50 in assay [1] of over 5000 nM. Moreover, the Ki on GCN2 kinase is 10 to 1000 nM.

Regarding `CC(F)(F)c1ccc2ncc(-c3cc(N4CCO[C@H](CNS(C)(=O)=O)C4)ncn3)n2n1` [II-322, (S)—N-((4-(6-(6-(1,1-Difluoroethyl)imidazo[1,2-b]pyridazin-3-yl)pyrimidin-4-yl)morpholin-2-yl)methyl)methanesulfonamide], the IC50 in assay [1] was over 5000 nM. The molecule further came in with a Ki on GCN2 kinase of 10 to 1000 nM.

Turning to `C[C@H]1CCCCN1c1cc(-c2cnc3ccc(C(F)F)nn23)ncn1` [II-323, (S)-6-(Difluoromethyl)-3-(6-(2-methylpiperidin-1-yl)pyrimidin-4-yl)imidazo[1,2-b]pyridazine], in assay [1], the IC50 was in the range of 500 to 5000 nM. Further, the inhibition constant (Ki) on GCN2 kinase was 10 to 1000 nM.

As to `C[C@@H]1COCCN1c1cc(-c2cnc3ccc(C(F)F)nn23)ncn1` [II-324, (R)-4-(6-(6-(Difluoromethyl)imidazo[1,2-b]pyridazin-3-yl)pyrimidin-4-yl)-3-methylmorpholine], the IC50 in assay [1] is over 5000 nM. The molecule also yielded a Ki at GCN2 kinase of 10 to 1000 nM.

In assay [1], `C[C@H]1COCCN1c1cc(-c2cnc3ccc(C(F)F)nn23)ncn1` [II-325, (S)-4-(6-(6-(Difluoromethyl)imidazo[1,2-b]pyridazin-3-yl)pyrimidin-4-yl)-3-methylmorpholine] returned an IC50 of 500 to 5000 nM. Besides, the Ki on GCN2 kinase was in the range of 10 to 1000 nM.

In the case of `FC(F)c1ccc2ncc(-c3cc(N4CCOC(Cn5cncn5)C4)ncn3)n2n1` (stereo not drawn) [II-326, 2-((1H-1,2,4-Triazol-1-yl)methyl)-4-(6-(6-(difluoromethyl)imidazo[1,2-b]pyridazin-3-yl)pyrimidin-4-yl)morpholine], in assay [1], the IC50 is over 5000 nM. On GCN2 kinase, this molecule returned a Ki of 10 to 1000 nM.

With `FC(F)c1ccc2ncc(-c3cc(N4CCCC(Cn5ccnn5)C4)ncn3)n2n1` (stereo not drawn) [II-327, 3-(6-(3-((1H-1,2,3-Triazol-1-yl)methyl)piperidin-1-yl)pyrimidin-4-yl)-6-(difluoromethyl)imidazo[1,2-b]pyridazine], the IC50 in assay [1] is over 5000 nM. At GCN2 kinase, this molecule had a Ki of 10 to 1000 nM.

In turn, `Cc1ccc2ncc(-c3cc(N4CCO[C@H](CNS(C)(=O)=O)C4)ncn3)n2n1` [II-328, (S)—N-((4-(6-(6-Methylimidazo[1,2-b]pyridazin-3-yl)pyrimidin-4-yl)morpholin-2-yl)methyl)methanesulfonamide] showed an IC50 in assay [1] of 500 to 5000 nM. The Ki on GCN2 kinase was in the range of 10 to 1000 nM.

As to `CC1C(CNS(C)(=O)=O)CC(F)(F)CN1c1cc(-c2cnc3ccc(C(F)F)nn23)ncn1` (stereo not drawn) [II-329, N-((1-(6-(6-(Difluoromethyl)imidazo[1,2-b]pyridazin-3-yl)pyrimidin-4-yl)-5,5-difluoro-2-methylpiperidin-3-yl)methyl)methanesulfonamide], the 50% inhibitory concentration (IC50) in assay [1] was under 500 nM. In addition, the Ki on GCN2 kinase is under 10 nM.

On to `CS(=O)(=O)NC[C@H]1CN(c2cc(-c3cnc4ccc(C(F)F)nn34)ncn2)C[C@H](C(F)(F)F)O1` [II-330, N-(((2R,6R)-4-(6-(6-(Difluoromethyl)imidazo[1,2-b]pyridazin-3-yl)pyrimidin-4-yl)-6-(trifluoromethyl)morpholin-2-yl)methyl)methanesulfonamide], for which, in assay [1], the IC50 is 500 to 5000 nM. The molecule further registered a Ki at GCN2 kinase of 10 to 1000 nM.

`CS(=O)(=O)NC[C@@H]1CN(c2cc(-c3cnc4ccc(C(F)F)nn34)ncn2)C[C@H](C(F)(F)F)O1` [II-331, N-(((2S,6R)-4-(6-(6-(Difluoromethyl)imidazo[1,2-b]pyridazin-3-yl)pyrimidin-4-yl)-6-(trifluoromethyl)morpholin-2-yl)methyl)methanesulfonamide] registered an IC50 in assay [1] of under 500 nM. Also, the Ki on GCN2 kinase was under 10 nM.

In turn, `NS(=O)(=O)N1CC2OCCN(c3cc(-c4cnc5ccc(C(F)F)nn45)ncn3)C2C1` (stereo not drawn) [II-332, 4-(6-(6-(Difluoromethyl)imidazo[1,2-b]pyridazin-3-yl)pyrimidin-4-yl)hexahydropyrrolo[3,4-b][1,4]oxazine-6(2H)-sulfonamide] showed an IC50 in assay [1] of over 5000 nM. Further, at GCN2 kinase, the Ki fell in the range of 10 to 1000 nM.

`NS(=O)(=O)N1CC2(CCCN(c3cc(-c4cnc5ccc(C(F)F)nn45)ncn3)C2)C1` [II-333, 6-(6-(6-(Difluoromethyl)imidazo[1,2-b]pyridazin-3-yl)pyrimidin-4-yl)-2,6-diazaspiro[3.5]nonane-2-sulfonamide] gave a concentration for half-maximal inhibition (IC50) in assay [1] of 500 to 5000 nM. The molecule further returned a Ki at GCN2 kinase of 10 to 1000 nM.

Take `NS(=O)(=O)N1CC2(CN(c3cc(-c4cnc5ccc(C(F)F)nn45)ncn3)CCO2)C1` [II-334, 8-(6-(6-(Difluoromethyl)imidazo[1,2-b]pyridazin-3-yl)pyrimidin-4-yl)-5-oxa-2,8-diazaspiro[3.5]nonane-2-sulfonamide]: in assay [1], the IC50 lay within 500 to 5000 nM. Also, the Ki on GCN2 kinase lay in the range of 10 to 1000 nM.

For `NS(=O)(=O)N1CC2CCCN(c3cc(-c4cnc5ccc(C(F)F)nn45)ncn3)C2C1` (stereo not drawn) [II-335, 1-(6-(6-(Difluoromethyl)imidazo[1,2-b]pyridazin-3-yl)pyrimidin-4-yl)octahydro-6H-pyrrolo[3,4-b]pyridine-6-sulfonamide], the IC50 in assay [1] was over 5000 nM. Besides, the inhibition constant (Ki) at GCN2 kinase was in the range of 10 to 1000 nM.

Turning to `CC1NCCN(c2cc(-c3cnc4ccc(C(F)F)nn34)ncn2)C1CNS(C)(=O)=O` (stereo not drawn) [II-336, N-((1-(6-(6-(Difluoromethyl)imidazo[1,2-b]pyridazin-3-yl)pyrimidin-4-yl)-3-methylpiperazin-2-yl)methyl)methanesulfonamide], the IC50 in assay [1] is over 5000 nM. The molecule also gave a Ki on GCN2 kinase of over 1000 nM.

In assay [1], `CC(O)c1ccc2ncc(-c3cc(N4C[C@@H](CNS(C)(=O)=O)C(F)(F)[C@@H](C)C4)ncn3)n2n1` (stereo partly drawn) [II-337, N-(((3S,5S)-4,4-Difluoro-1-(6-(6-(1-hydroxyethyl)imidazo[1,2-b]pyridazin-3-yl)pyrimidin-4-yl)-5-methylpiperidin-3-yl)methyl)methanesulfonamide] registered an IC50 of over 5000 nM. On GCN2 kinase, this molecule gave a Ki of 10 to 1000 nM.

In assay [1], `CC(O)c1ccc2ncc(-c3cc(N4CCO[C@H](CNS(C)(=O)=O)C4)ncn3)n2n1` (stereo partly drawn) [II-338, N-(((2S)-4-(6-(6-(1-Hydroxyethyl)imidazo[1,2-b]pyridazin-3-yl)pyrimidin-4-yl)morpholin-2-yl)methyl)methanesulfonamide trifluoroacetate] registered an IC50 of over 5000 nM. Moreover, the Ki at GCN2 kinase fell in the range of 10 to 1000 nM.

`FC(F)c1ccc2ncc(-c3cc(N4CCCC(Cn5cncn5)C4)ncn3)n2n1` (stereo not drawn) [II-339, 3-(6-(3-((1H-1,2,4-Triazol-1-yl)methyl)piperidin-1-yl)pyrimidin-4-yl)-6-(difluoromethyl)imidazo[1,2-b]pyridazine] showed an IC50 in assay [1] of 500 to 5000 nM. This molecule also came in with a Ki on GCN2 kinase of 10 to 1000 nM.

In assay [1], `CCN1CCN(c2cc(-c3cnc4ccc(C(F)F)nn34)ncn2)C(C)C1CNS(C)(=O)=O` (stereo not drawn) [II-340, N-((4-(6-(6-(Difluoromethyl)imidazo[1,2-b]pyridazin-3-yl)pyrimidin-4-yl)-1-ethyl-3-methylpiperazin-2-yl)methyl)methanesulfonamide] showed an IC50 of under 500 nM. In addition, at GCN2 kinase, the Ki is 10 to 1000 nM.

The molecule `CC1C(CO)OCCN1c1cc(-c2cnc3ccc(C(F)F)nn23)ncn1` (stereo not drawn) [II-341, (4-(6-(6-(Difluoromethyl)imidazo[1,2-b]pyridazin-3-yl)pyrimidin-4-yl)-3-methylmorpholin-2-yl)methanol] gave a 50% inhibitory concentration (IC50) in assay [1] of over 5000 nM. On GCN2 kinase, this molecule returned a Ki of 10 to 1000 nM.

The molecule `CC1C(CO)OCCN1c1cc(-c2cnc3ccc(C(F)F)nn23)ncn1` (stereo not drawn) [II-342, (4-(6-(6-(Difluoromethyl)imidazo[1,2-b]pyridazin-3-yl)pyrimidin-4-yl)-3-methylmorpholin-2-yl)methanol] yielded an IC50 in assay [1] of 500 to 5000 nM. The Ki at GCN2 kinase lay within 10 to 1000 nM.

In turn, `OCC1CN(c2cc(-c3cnc4ccc(C(F)F)nn34)ncn2)CC2(COC2)O1` (stereo not drawn) [II-343, (8-(6-(6-(Difluoromethyl)imidazo[1,2-b]pyridazin-3-yl)pyrimidin-4-yl)-2,5-dioxa-8-azaspiro[3.5]nonan-6-yl)methanol] yielded an IC50 in assay [1] of over 5000 nM. The same molecule came in with a Ki at GCN2 kinase of 10 to 1000 nM.

In turn, `NS(=O)(=O)N1CCC2CCN(c3cc(-c4cnc5ccc(C(F)F)nn45)ncn3)C2C1` (stereo not drawn) [II-344, 1-(6-(6-(Difluoromethyl)imidazo[1,2-b]pyridazin-3-yl)pyrimidin-4-yl)octahydro-6H-pyrrolo[2,3-c]pyridine-6-sulfonamide] came in with an IC50 in assay [1] of under 500 nM. At GCN2 kinase, this molecule gave a Ki of under 10 nM.

In assay [1], `CC1C(CNS(C)(=O)=O)OCCN1c1cc(-c2cnc3ccc(C(F)F)nn23)ncn1` (stereo not drawn) [II-345, N-((4-(6-(6-(Difluoromethyl)imidazo[1,2-b]pyridazin-3-yl)pyrimidin-4-yl)-3-methylmorpholin-2-yl)methyl)methanesulfonamide] yielded an IC50 of under 500 nM. Also, at GCN2 kinase, the Ki was under 10 nM.
